Assay [1] concerns TNF-RE tkLuc. The experiment in a line: Activation of TNF-RE tkLuc reporter (Example 2). The format is cell-based, human. As to conditions: for effect on the repression induced by E2: TNF-RE tkLuc. From the text:
(§1) Plasmid Construction. […] ERβ mutants were created with QuikChange site-directed mutagenesis kits (Stratagene), by using oligonucleotides containing the mutation. The mutants were sequenced with Sequenase kits (Amersham Pharmacia) to verify the presence of the mutation.

Assay [2] relates to breast cancer. The note with it: cited from earlier work.
The target in assay [3] is T1, ERβ (Homo sapiens, UniProt Q92731). The assay is described as follows: ERE-tk-Luc luciferase assay in U2OS osteosarcoma cells. The format is cell-based. Also noted: expressed in transfected cells; host or cells: U2OS (human osteosarcoma). As to conditions: co-administration with the extract.
T1 sequence (Q92731 whole entry): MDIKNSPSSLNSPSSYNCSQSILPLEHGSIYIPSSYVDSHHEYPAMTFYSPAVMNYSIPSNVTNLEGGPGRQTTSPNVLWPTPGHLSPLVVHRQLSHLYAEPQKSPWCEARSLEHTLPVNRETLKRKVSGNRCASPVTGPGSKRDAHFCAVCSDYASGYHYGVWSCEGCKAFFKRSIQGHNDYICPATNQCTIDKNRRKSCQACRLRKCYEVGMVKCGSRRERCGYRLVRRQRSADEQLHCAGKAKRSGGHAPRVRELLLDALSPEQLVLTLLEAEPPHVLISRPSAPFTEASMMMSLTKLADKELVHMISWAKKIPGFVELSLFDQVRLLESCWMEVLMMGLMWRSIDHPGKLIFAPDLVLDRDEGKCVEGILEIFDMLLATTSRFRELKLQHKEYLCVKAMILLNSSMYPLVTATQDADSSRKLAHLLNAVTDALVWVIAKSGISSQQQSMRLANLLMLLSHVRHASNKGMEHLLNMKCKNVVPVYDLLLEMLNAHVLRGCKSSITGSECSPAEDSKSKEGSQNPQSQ
The test system of assay [4] is breast cancer. As to conditions: among 5129 women in the treatment group, median follow-up 40 months; cited from earlier work.
In assay [5] the target is T1, ERβ. As to conditions: in the presence of ERβ.
Source text: as §1

Assay [6] addresses T1, ERβ. The experiment in a line: Repression of TNF-α activation of TNF-RE tkLuc in U2OS cells. The format is cell-based. Also on record: expressed in transfected cells.

`CC/C(=C(\c1ccccc1)c1ccc(OCCN(C)C)cc1)c1ccccc1` [tamoxifen]: in assay [1], the “activation of TNF-RE tkLuc by antiestrogens” value (“activation … by antiestrogens” below) was found to be 2 fold and the “effect on the repression induced by E2” value was “abolished the repression induced by E2”. For the same molecule, in assay [2] (BCPT, women at high risk for breast cancer), the “reduction of the risk of primary invasive breast cancer” value is on record as 49%. Also, the “reduction of the risk of recurrences” value in assay [2] (five years of therapy, ER-positive breast cancer) was 42%. Further, the “reduction of mortality from breast cancer” value in assay [2] (five years of therapy) is reported as 22%.
`O=C(c1ccc(OCCN2CCCCC2)cc1)c1c(-c2ccc(O)cc2)sc2cc(O)ccc12` [raloxifene]: in assay [1], the “activation … by antiestrogens” value is listed as 2 fold. Also, the “effect on the repression induced by E2” value in assay [1] is reported as “abolished the repression induced by E2”. In addition, the “effect of anti-estrogen on extract-stimulated ERE-tk-Luc expression” value (“effect of anti-estrogen” for short) in assay [3] (FIG. 5) was “counteracted”; in assay [3] (FIG. 5, listed as Raloxifene), “attenuated”. The “cases of breast cancer” value in assay [4] is reported as 13 cases.
Regarding `C[C@]12CC[C@@H]3c4ccc(O)cc4C[C@@H](CCCCCCCCC[S+]([O-])CCCC(F)(F)C(F)(F)F)[C@H]3[C@@H]1CC[C@@H]2O` (some centres unmarked) [ICI 182780], in assay [1], the “activation … by antiestrogens” value amounted to 2 fold and the “effect on the repression induced by E2” value is reported as “abolished the repression induced by E2”. In assay [3] (FIG. 5), the “effect of anti-estrogen” value is given as “counteracted”. Also, in assay [3] (FIG. 5, listed as ICI), the “effect of anti-estrogen” value is on record as “attenuated”.
In the case of TNF-α, the “activation of 3 copies of the TNF-RE (−125 to −82) upstream of the tk promoter” value in assay [1] (TNF-α as stimulus) is 5-10 fold.
As for `C[C@]12CC[C@@H]3c4ccc(O)cc4CC[C@H]3[C@@H]1CC[C@@H]2O` [Herb E2, estradiol], in assay [5], the “repression of TNF-α activation of TNF-RE tkLuc” value is given as 60-80%. In addition, in assay [6], the “repression of TNF-α activation of TNF-RE” value worked out at 100%.

Source of the values: US20090297637A1.
